Source: US20210121833A1, “Producing Homogeneous Metastable Solutions from Heterogeneous Non-condensed Solutes And Liquid Solvents” (priority 2019, published 2021)

Columns and labels:
[1] = system: wounds and lesions; assay: Baths with oxygen saturated metastable solution, preliminary animal studies; type: in vivo; conditions: at least 30 mg/l concentration of oxygen
[2] = cited from earlier work

Structure (SMILES): O=O [oxygen]
- benefits of healing [1]: Benefits of healing have been seen
- fully saturated DO level ([2]; STP): 38 mg/L
- solubility limit of oxygen ([2]; atmospheric conditions, partial pressure in air of 0.21 atm): less than 10 mg/l
